# Results as given in patent US4051315A, “6"-Deoxykanamycin B and 6"-deoxytobramycin” (priority 1975, dated 1977).
# Like-named read-outs stand apart in the source and are kept apart here.
# How the values were obtained:
# Assay type in all cases: cell-based
# E. cloacae A21006 NPT-2 = test: two-fold agar dilution MIC, E1-12
# P. aeruginosa GN-315 KAT = test: two-fold agar dilution MIC, Pa-27
# P. vulgaris A9436 = test: two-fold agar dilution MIC, Pv-1
# B. subtilis PCT-219 = test: two-fold agar dilution MIC, Bs-1; details: Bacillus subtilis
# [1] = system: E. coli JR66/W677 NPT-2, GAS; test: two-fold agar dilution MIC, Ec-53
# P. stuartii A20894 GAT-2 = test: two-fold agar dilution MIC, Ps-2
# [2] = system: P. aeruginosa A20653 NPT-1,2; test: two-fold agar dilution MIC, Pa-12; details: Pseudomonas aeruginosa
# S. aureus Smith = test: two-fold agar dilution MIC, Sa-2; details: Staphylococcus aureus
# E. coli ML1630 NPT-1 = test: two-fold agar dilution MIC, Ec-5; details: Escherichia coli
# [3] = system: K. pneumoniae 22-3038 NPT-2, GAS; test: two-fold agar dilution MIC, Kp-8
# [4] = system: P. aeruginosa A20601 GAT-1; test: two-fold agar dilution MIC, Pa-21; details: Pseudomonas aeruginosa
# P. mirabilis A9554 CL-R = test: two-fold agar dilution MIC, Pm-1
# [5] = system: Pseudomonas sp. A20621 KAT, NPT-1,2; test: two-fold agar dilution MIC, Px-10
# E. coli JR88 CAT-1 = test: two-fold agar dilution MIC, Ec-62
# S. aureus D133 SH, Sth-R = test: two-fold agar dilution MIC, Sa-4
# E. coli R5 KAT = test: two-fold agar dilution MIC, Ec-55
# P. aeruginosa GN-4925 = test: two-fold agar dilution MIC, Pa-45; details: Pseudomonas aeruginosa
# S. aureus A20239 NPT-1,2 = test: two-fold agar dilution MIC, Sa-10
# [6] = system: P. aeruginosa #130 GAT-1, NPT; test: two-fold agar dilution MIC, Pa-16
# E. coli A20107 NPT-2 = test: two-fold agar dilution MIC, Ec-49; details: Escherichia coli
# E. coli A20732 GAS = test: two-fold agar dilution MIC, Ec-72; details: Escherichia coli, A20732GAS
# E. coli JR35/C600 NPT-1 = test: two-fold agar dilution MIC, Ec-10
# E. coli P01495 CP.TC-R = test: two-fold agar dilution MIC, Ec-2; details: Escherichia coli, P01495CP.TCR
# P. aeruginosa A9930 = test: two-fold agar dilution MIC, Pa-3; details: Pseudomonas aeruginosa
# E. cloacae A20364 NPT-1 = test: two-fold agar dilution MIC, E1-2; details: Enterobacter cloacae
# E. coli NR79/W677 KAT = test: two-fold agar dilution MIC, Ec-9; details: Escherichia coli, NR79/W677KAT
# [7] = system: S. marcescens A21247 NPT-1, GAS; test: two-fold agar dilution MIC, Sm-16; details: Serratia marcescens
# [8] = system: S. aureus D137 PC, TC, EM-R; test: two-fold agar dilution MIC, Sa-9
# E. coli NIHJ = test: two-fold agar dilution MIC, Ec-1
# K. pneumoniae D11 = test: two-fold agar dilution MIC, Kp-1; details: Klebsiella pneumoniae
# S. marcescens A20019 = test: two-fold agar dilution MIC, Sm-1
# [9] = system: P. aeruginosa A20896 GAT-3; test: two-fold agar dilution MIC, Pa-24
# [10] = system: a variety of gram-positive and gram-negative bacteria; test: antibacterial activity by two-fold agar dilution method, overall statement
# [11] = Enterobacter cloacae, A21006NPT2
# [12] = Proteus vulgaris, A9436, Run 1, read-out: MIC
# [13] = Klebsiella pneumoniae, Run 1, read-out: MIC
# [14] = Proteus mirabilis, A9554CLR, Run 1, read-out: MIC
# [15] = Pseudomonas, Run 1, read-out: MIC
# [16] = Staphylococcus aureus, Run 1, read-out: MIC
# [17] = Pseudomonas aeruginosa, Run 1, read-out: MIC
# [18] = Escherichia coli, JR35/C600NPT1
# [19] = Escherichia coli, Run 1, read-out: MIC
# [20] = Serratia marcescens, A20019, Run 1, read-out: MIC
# [21] = Pseudomonas aeruginosa, A20896GAT3, Run 1, read-out: MIC
smiles,measurement,setting,value
"NCC1OC(OC2C(N)CC(N)C(OC3OC(CO)C(O)C(N)C3O)C2O)C(N)CC1O (centres unmarked) [tobramycin, 3'-deoxykanamycin B]",MIC,E. cloacae A21006 NPT-2; [11],1.6 µg/mL
same,MIC,"E. cloacae A21006 NPT-2; Run 2, E1-12",1.6 µg/mL
same,MIC,"P. aeruginosa GN-315 KAT; Pseudomonas aeruginosa, GN315, Run 1, read-out: MIC",> 100 µg/mL
same,MIC,P. aeruginosa GN-315 KAT; Run 2,> 100 µg/mL
same,MIC,P. vulgaris A9436; [12],0.4 µg/mL
same,MIC,P. vulgaris A9436; Run 2,0.4 µg/mL
same,MIC,"B. subtilis PCT-219; PCT219, Run 1",0.2 µg/mL
same,MIC,"B. subtilis PCT-219; PCT219, Run 2",< 0.05 µg/mL
same,MIC,[1]; Escherichia coli,25 µg/mL
same,MIC,"[1]; Run 2, Ec-53",25 µg/mL
same,MIC,"P. stuartii A20894 GAT-2; Providencia stuartii, A20894GAT2",12.5 µg/mL
same,MIC,"P. stuartii A20894 GAT-2; Run 2, Ps-2",12.5 µg/mL
same,MIC,[2]; Run 1,6.3 µg/mL
same,MIC,[2]; Run 2,3.1 µg/mL
same,MIC,S. aureus Smith; Run 1,0.4 µg/mL
same,MIC,S. aureus Smith; Run 2,0.2 µg/mL
same,MIC,"E. coli ML1630 NPT-1; ML1630NPT1, Run 1",1.6 µg/mL
same,MIC,"E. coli ML1630 NPT-1; ML1630NPT1, Run 2",0.8 µg/mL
same,MIC,[3]; [13],25 µg/mL
same,MIC,[3]; Run 2,25 µg/mL
same,MIC,"[4]; A20601GAT1, Run 1",3.1 µg/mL
same,MIC,"[4]; A20601GAT1, Run 2",1.6 µg/mL
same,MIC,P. mirabilis A9554 CL-R; [14],0.8 µg/mL
same,MIC,P. mirabilis A9554 CL-R; Run 2,0.8 µg/mL
same,MIC,[5]; [15],25 µg/mL
same,MIC,[5]; Run 2,25 µg/mL
same,MIC,"E. coli JR88 CAT-1; Escherichia coli, JR88CAT1",1.6 µg/mL
same,MIC,"E. coli JR88 CAT-1; Run 2, Ec-62",1.6 µg/mL
same,MIC,"S. aureus D133 SH, Sth-R; Run 2",1.6 µg/mL
same,MIC,"S. aureus D133 SH, Sth-R; [16]",1.6 µg/mL
same,MIC,"E. coli R5 KAT; Escherichia coli, R5KAT",0.8 µg/mL
same,MIC,"E. coli R5 KAT; Run 2, Ec-55",0.8 µg/mL
same,MIC,"P. aeruginosa GN-4925; GN4925, Run 1",100 µg/mL
same,MIC,"P. aeruginosa GN-4925; GN4925, Run 2",50 µg/mL
same,MIC,"S. aureus A20239 NPT-1,2; Run 2, Sa-10",1.6 µg/mL
same,MIC,[6]; [17],3.1 µg/mL
same,MIC,[6]; Run 2,3.1 µg/mL
same,MIC,"E. coli A20107 NPT-2; A20107NPT2, Run 1",1.6 µg/mL
same,MIC,"E. coli A20107 NPT-2; A20107NPT2, Run 2",1.6 µg/mL
same,MIC,E. coli A20732 GAS; Run 1,50 µg/mL
same,MIC,E. coli A20732 GAS; Run 2,1.6 µg/mL
same,MIC,E. coli JR35/C600 NPT-1; [18],1.6 µg/mL
same,MIC,"E. coli JR35/C600 NPT-1; Run 2, Ec-10",1.6 µg/mL
same,MIC,E. coli P01495 CP.TC-R; Run 1,1.6 µg/mL
same,MIC,E. coli P01495 CP.TC-R; Run 2,0.8 µg/mL
same,MIC,"P. aeruginosa A9930; A9930, Run 1",0.4 µg/mL
same,MIC,"P. aeruginosa A9930; A9930, Run 2",0.8 µg/mL
same,MIC,"E. cloacae A20364 NPT-1; A20364NPT1, Run 1",50 µg/mL
same,MIC,"E. cloacae A20364 NPT-1; A20364NPT1, Run 2",1.6 µg/mL
same,MIC,E. coli NR79/W677 KAT; Run 1,1.6 µg/mL
same,MIC,E. coli NR79/W677 KAT; Run 2,0.8 µg/mL
same,MIC,[7]; Run 1,50 µg/mL
same,MIC,[7]; Run 2,50 µg/mL
same,MIC,[8]; Run 2,3.1 µg/mL
same,MIC,[8]; [16],3.1 µg/mL
same,MIC,E. coli NIHJ; [19],0.8 µg/mL
same,MIC,E. coli NIHJ; Run 2,0.8 µg/mL
same,MIC,"K. pneumoniae D11; D11, Run 1",0.4 µg/mL
same,MIC,"K. pneumoniae D11; D11, Run 2",0.8 µg/mL
same,MIC,S. marcescens A20019; [20],6.3 µg/mL
same,MIC,"S. marcescens A20019; Serratia marcescens, A20019, Run 2",12.5 µg/mL
same,MIC,[9]; [21],> 100 µg/mL
same,MIC,[9]; Run 2,> 100 µg/mL
"CC1OC(OC2C(N)CC(N)C(OC3OC(CN)C(O)CC3N)C2O)C(O)C(N)C1O (centres unmarked) [compound 6, 6""-Deoxytobramycin]",MIC,E. cloacae A21006 NPT-2; [11],1.6 µg/mL
same,MIC,"E. cloacae A21006 NPT-2; Run 2, E1-12",1.6 µg/mL
same,MIC,"P. aeruginosa GN-315 KAT; Pseudomonas aeruginosa, GN315, Run 2, read-out: MIC",> 100 µg/mL
same,MIC,P. aeruginosa GN-315 KAT; Run 1,> 100 µg/mL
same,MIC,P. vulgaris A9436; [12],0.2 µg/mL
same,MIC,P. vulgaris A9436; Run 2,0.2 µg/mL
same,MIC,"B. subtilis PCT-219; PCT219, Run 1",< 0.05 µg/mL
same,MIC,"B. subtilis PCT-219; PCT219, Run 2",< 0.05 µg/mL
same,MIC,[1]; Escherichia coli,25 µg/mL
same,MIC,"[1]; Run 2, Ec-53",25 µg/mL
same,MIC,"P. stuartii A20894 GAT-2; Providencia stuartii, A20894GAT2, Run 1, Ps-2, read-out: MIC",25 µg/mL
same,MIC,"P. stuartii A20894 GAT-2; Run 2, Ps-2",25 µg/mL
same,MIC,[2]; Run 1,6.3 µg/mL
same,MIC,[2]; Run 2,3.1 µg/mL
same,MIC,S. aureus Smith; Run 1,0.2 µg/mL
same,MIC,S. aureus Smith; Run 2,0.1 µg/mL
same,MIC,"E. coli ML1630 NPT-1; ML1630NPT1, Run 1",1.6 µg/mL
same,MIC,"E. coli ML1630 NPT-1; ML1630NPT1, Run 2",0.8 µg/mL
same,MIC,[3]; [13],25 µg/mL
same,MIC,[3]; Run 2,25 µg/mL
same,MIC,"[4]; A20601GAT1, Run 1",3.1 µg/mL
same,MIC,"[4]; A20601GAT1, Run 2",3.1 µg/mL
same,MIC,P. mirabilis A9554 CL-R; [14],0.8 µg/mL
same,MIC,P. mirabilis A9554 CL-R; Run 2,0.8 µg/mL
same,MIC,[5]; [15],50 µg/mL
same,MIC,[5]; Run 2,50 µg/mL
same,MIC,"E. coli JR88 CAT-1; Escherichia coli, JR88CAT1",3.1 µg/mL
same,MIC,"E. coli JR88 CAT-1; Run 2, Ec-62",3.1 µg/mL
same,MIC,"S. aureus D133 SH, Sth-R; Run 2",1.6 µg/mL
same,MIC,"S. aureus D133 SH, Sth-R; [16]",1.6 µg/mL
same,MIC,"E. coli R5 KAT; Escherichia coli, R5KAT",0.4 µg/mL
same,MIC,"E. coli R5 KAT; Run 2, Ec-55",0.4 µg/mL
same,MIC,"P. aeruginosa GN-4925; GN4925, Run 1",100 µg/mL
same,MIC,"P. aeruginosa GN-4925; GN4925, Run 2",100 µg/mL
same,MIC,"S. aureus A20239 NPT-1,2; Run 2, Sa-10",0.8 µg/mL
same,MIC,"S. aureus A20239 NPT-1,2; Staphylococcus aureus",0.8 µg/mL
same,MIC,[6]; [17],6.3 µg/mL
same,MIC,[6]; Run 2,6.3 µg/mL
same,MIC,"E. coli A20107 NPT-2; A20107NPT2, Run 1",1.6 µg/mL
same,MIC,"E. coli A20107 NPT-2; A20107NPT2, Run 2",0.8 µg/mL
same,MIC,E. coli A20732 GAS; Run 1,50 µg/mL
same,MIC,E. coli A20732 GAS; Run 2,25 µg/mL
same,antibacterial activity,[10],excellent antibacterial activity
same,MIC,E. coli JR35/C600 NPT-1; [18],0.8 µg/mL
same,MIC,"E. coli JR35/C600 NPT-1; Run 2, Ec-10",0.8 µg/mL
same,MIC,E. coli P01495 CP.TC-R; Run 1,0.8 µg/mL
same,MIC,E. coli P01495 CP.TC-R; Run 2,0.8 µg/mL
same,MIC,"P. aeruginosa A9930; A9930, Run 1",0.4 µg/mL
same,MIC,"P. aeruginosa A9930; A9930, Run 2",0.4 µg/mL
same,MIC,"E. cloacae A20364 NPT-1; A20364NPT1, Run 1",1.6 µg/mL
same,MIC,"E. cloacae A20364 NPT-1; A20364NPT1, Run 2",1.6 µg/mL
same,MIC,E. coli NR79/W677 KAT; Run 1,1.6 µg/mL
same,MIC,E. coli NR79/W677 KAT; Run 2,0.8 µg/mL
same,MIC,[7]; Run 1,100 µg/mL
same,MIC,[7]; Run 2,50 µg/mL
same,MIC,[8]; Run 2,3.1 µg/mL
same,MIC,[8]; [16],3.1 µg/mL
same,MIC,E. coli NIHJ; [19],0.8 µg/mL
same,MIC,E. coli NIHJ; Run 2,0.8 µg/mL
same,MIC,"K. pneumoniae D11; D11, Run 1",0.2 µg/mL
same,MIC,"K. pneumoniae D11; D11, Run 2",0.4 µg/mL
same,MIC,S. marcescens A20019; Run 2,6.3 µg/mL
same,MIC,S. marcescens A20019; [20],6.3 µg/mL
same,MIC,[9]; [21],> 100 µg/mL
same,MIC,[9]; Run 2,> 100 µg/mL
